Source: article PMC3024946, “Hydroxyproline-containing collagen analogs trigger the release and activation of collagen-sequestered proMMP-2 by competition with prodomain-derived peptide P33-42” (Fibrogenesis & Tissue Repair, 2011)
“Also recorded” adds a separate entry of the source.

Biological target: T1, proMMP-2 / CI (Homo sapiens, UniProt P08253)
T1 construct: prodomain-containing proMMP-2 or proMMP-9; purchased Invitek
T1 sequence (P08253 30-660 limits assumed): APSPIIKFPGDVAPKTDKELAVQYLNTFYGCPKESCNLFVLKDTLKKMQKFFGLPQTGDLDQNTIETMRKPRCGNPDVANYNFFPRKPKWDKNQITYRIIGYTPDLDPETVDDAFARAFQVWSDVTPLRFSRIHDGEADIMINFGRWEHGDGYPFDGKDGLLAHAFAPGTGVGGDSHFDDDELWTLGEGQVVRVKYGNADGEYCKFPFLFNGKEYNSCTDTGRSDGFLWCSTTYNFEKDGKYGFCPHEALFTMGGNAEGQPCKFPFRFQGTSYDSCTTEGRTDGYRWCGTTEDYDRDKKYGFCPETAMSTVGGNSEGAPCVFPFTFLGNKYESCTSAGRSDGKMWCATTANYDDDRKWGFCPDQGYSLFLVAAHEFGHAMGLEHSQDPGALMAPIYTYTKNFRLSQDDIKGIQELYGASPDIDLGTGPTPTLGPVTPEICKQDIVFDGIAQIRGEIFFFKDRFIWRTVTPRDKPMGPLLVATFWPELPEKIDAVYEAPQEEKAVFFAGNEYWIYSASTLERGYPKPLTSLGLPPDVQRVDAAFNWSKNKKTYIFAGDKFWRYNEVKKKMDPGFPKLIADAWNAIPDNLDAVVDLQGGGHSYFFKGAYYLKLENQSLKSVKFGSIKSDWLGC
Experiment: SPR, competition of proMMP-2 binding to CI, MMP activity buffer with Ro 28-2653
Details: for competition with proMMP-2 binding to CI: SPR, MMP activity buffer with Ro 28-2653; for Kd for binding to CI in the presence of 10-fold molar excess of competitor: proMMP-2 100 nM, MMP activity buffer, 1 μM Ro 28-2653, 25°C, mean ± SD, at least three experiments
Method: Sensor chip preparations and SPR measurements were performed using a BiacoreX device and the Bia-evaluation software (version 3.2; Biacore, Uppsala, Sweden). The pepsin-resistant triple-helical part of human fibrillar CI (100 μg/ml) in 10 mM acetate coupling buffer, pH 4.8, was immobilized to a dextran matrix-sensor chip at a flow rate of 5 μl/min, resulting in 5,500 resonance units from CI covalently linked via its primary amino groups. The control flow cell was prepared using the coupling buffer without CI. Surfaces were activated and blocked as described previously. Immediately after thawing, pro- and actMMP-2 and pro- and actMMP-9 were diluted to 100 to 250 nM in MMP activity buffer or in PBS and 0.05% (vol/vol) Tween 20. For SPR measurements, flow rates were 10 μl/min at 25°C, and equilibrium was typically reached after 30 to 60 s. The effects of (GPO)10, GAP, (POG)5, (GPP)10 and P33-42 on MMP-2 and MMP-9 binding to CI and their enzymatic activity were determined by adding the binding competitors to the (pro- and act)MMP-2 and MMP-9 solution in 10- to 150-fold molar excesses. Effects independent of MMP-2 and MMP-9 activity were monitored in the presence of Ro 28-2653 (1 μM) during SPR analysis. The gelatinase inhibitor Ro 28-2653 was a generous gift from H.-W. Krell (Roche, Grenzach-Wyhlen, Germany). Sensor surfaces were regenerated with 10 mM glycine, pH 2.3, for 1 min between runs, and sensor chips were used up to 25 times. Kinetic parameters were analyzed using the 1:1 binding model with drifting baseline and subtraction of the control flow cell binding from sensorgrams obtained with immobilized CI. Binding constants (Kd) were calculated from the association (ka) and dissociation rates (kd) obtained from individual binding curves at different concentrations. Individual drifts of the resonance signal were fitted locally, and χ^2 values of 0.2% to 1.0% of the maximum resonance value were considered good fits.

Substance | competition with proMMP-2 binding to CI | Kd for binding to CI in the presence of 10-fold molar excess of competitor | reduction of affinity / increase in Kd of binding to CI (proMMP-2, 10-fold molar excess of competitor)
H-Gly-Cys-Hyp-(Gly-Pro-Hyp)10-Gly-Cys-Hyp-Gly-NH2 [(GPO)10, triple-helical Hyp-containing collagen analog] | comparable to that of (POG)5; also recorded: effectively compete proMMP-2 binding to CI | 155.5 ± 50.2 nM | –
H-Gly-Cys-Pro-(Gly-Pro-Pro)10-Gly-Cys-Pro-Gly-NH2 [(GPP)10, Triple-helical Gly-Pro-Pro (GPP)10, devoid of Hyp] | much less efficient in competing with proMMP-2 binding to CI than the nonhelical (POG)5 | 42.1 ± 39.1 nM | about a sixfold increase
